Results as given in ChEMBL document CHEMBL1141816, “Massarinolins A-C: new bioactive sesquiterpenoids from the aquatic fungus massarina tunicata” (1999).
Calls of active or inactive are those of the source. The calls are words filed in the database; no cut-off is given here.

Tests used:
Bacillus subtilis = test: Antibacterial activity against Bacillus subtilis ATCC 6051 at 200 ug/disk by standard disk assay; type: functional; conditions: for zone of inhibition at 200 µg/disc: read-out: IZ
Candida albicans = test: Antifungal activity against Candida albicans ATCC 14053 at 200 ug/disk by standard disk assay; type: functional, organism-based
Staphylococcus aureus = test: Antibacterial activity against Staphylococcus aureus ATCC 29213 at 200 ug/disk by standard disk assay; type: functional

Row | Compound | zone of inhibition at 200 µg/disc (Bacillus subtilis) | Activity (Candida albicans) | zone of inhibition at 200 µg/disc (Staphylococcus aureus; read-out: IZ) | Activity (Bacillus subtilis) | Activity (Staphylococcus aureus)
1 | C/C(=C\[C@@H](O)C[C@@]12CO[C@]3(C)CC[C@H]1C[C@H]23)C(=O)O [MASSARINOLIN B] | 8 mm | inactive | – | – | –
2 | C=C1CC[C@H]2C[C@@H]1[C@@]21CO[C@]2(C=C(C)C(=O)O2)[C@H]1O [MASSARINOLIN A] | 17 mm | inactive | 10 mm | – | –
3 | C=C1CC[C@H]2C[C@@H]1[C@]2(CO)C[C@H](O)/C=C(\C)C(=O)O | – | inactive | – | inactive | inactive
